Results from patent US20250333782A1 (ILLUMINA, INC., priority 2022, published 2025).
Structures can show the parent of a compound that is named as a salt.

Assays:
[1] = system: dsDNA (300 bp-500 bp long, containing 4 known caC sites per strand); experiment: caC detection of dsDNA by Illumina sequencing, one-step overnight incubation; details: one-step protocol, 100 mM borane, pH 4.3, 40° C., 16 h; expected beta=1; FIG. 4
Procedure: An aliquot of 2 M borane stock solution in DMF was added to a buffered solution containing calculated amount of dsDNA (300 bp-500 bp long, containing 4 known caC sites per strand), resulting in the final borane concentration of 100 mM and pH of 4.3 (0.5 M NaOAc). The reaction mixture (50 μL) was shaken at 40° C. for 16 h. Then, the samples were purified by 1.8×SPRI (pH adjusted with 1 M Tris buffer pH=9.0). The purified DNA was PCR-amplified using the NEB-Next Enzymatic Methyl-Seq kit's NEB-Next Q5U Master Mix along with IDT-ILMN NextEra UDI Index primers. Finally, 0.9×SPRI purification was performed. The DNA libraries were normalized to 2 nM and 20 pM sequenced on an Illumina NextSeq instrument. The sequencing data was analysed to extract the beta value, which reflects the percentage conversion of caC to T.
The boranes tested included 5-methylthiazole borane VM117, 3-aminopyridine borane (3 AP), 4-methylpyridine-borane (4MeP), 5-(methoxymethyl)-2,4-dimethyl-1,3-thiazole borane (VM293), and 4-hydroxymethylpyridine borane (4HMP). […] The percentage of caC sites were detected by Illumina sequencing.

[2] = system: human DNA NA12878 treated with human TET2 dioxygenase; experiment: caC detection by Illumina sequencing, two-step incubation; details: borane 40 mM or 100 mM, pH 4.3, 40° C. 2.5 hours, quench alpha-ketoglutarate, then 40° C. 18 hours; FIG. 5
Procedure: A sample of human DNA NA12878 was treated with human TET2 dioxygenase to oxidise mC to caC. The sample was purified by a 1.8×SPRI and resuspended in RSB buffer. 2 M stocks of the amine-boranes were prepared in DMF, then added to the DNA to a final concentration of 40 mM or 100 mM, along with pH 4.3 sodium acetate buffer to a final concentration of 0.5 M. For the one-step protocol, the samples were incubated at 40° C. for 18 hours and 750 rpm shaking. For the two-step protocol, the samples were incubated at 40° C. for 2.5 hours and 750 rpm shaking, then quenched with a 1 M solution of alpha-ketoglutarate at pH 4.3 (to a final concentration of 400 mM) and kept at 40° C. for 18 hours and 750 rpm shaking. After the incubation, all samples underwent a 1.8×SPRI purification after adding 1 M pH 9 TRIS to basify the pH. Libraries were then amplified via PCR using the NEB-Next Enzymatic Methyl-Seq kit's NEB-Next Q5U Master Mix along with NEBNext Multiplex Oligos for Illumina Index primers. A final 0.9×SPRI was performed, before libraries were normalized to 20 pM sequenced on an Illumina NovaSeq (2×151 cycles). The sequencing data was analysed to extract the beta value, which reflects the percentage conversion of 5mC or 5hmC to T.
The percentage caC sites were detected by Illumina sequencing.

[3] = system: 7mer oligodeoxyribonucleotide AT[5caC]GCTA; experiment: Reaction kinetics of caC reduction on 7mer, boranes with cationic moieties; details: 50 μM 7mer, 10 mM borane, NaOAc pH 4.3, 25° C.; FIG. 7
Procedure: (§1) To 45 μL of an aqueous solution of 0.111 mM 5caCpG dimer (0.1 mM final concentration) or 55.6 μM 7mer oligodeoxyribonucleotide (50 μM final concentration, sequence: AT[5caC]GCTA) or 22.2 μM 20mer oligodeoxyribonucleotide (20 μM final concentration, sequence: TTTCAGCTC[5caC]GGTCACGCTC) in 556 mM NaOAc buffer (pH 4.3, 500 mM final concentration) were added 5 μL of a stock solution of the respective borane (100 mM in DMF, 10 mM final concentration) and the reaction was incubated at 25° C. after short vortexing. Aliquots of 8 μL were taken at set time points and were quenched immediately with 4 μL alpha-ketoglutarate monosodium salt (1.0 M in H2O) and analysed by RP-UHPLC for consumption of the caC moiety in the starting material and formation of the product DHU moiety.

[4] = system: 20mer oligodeoxyribonucleotide TTTCAGCTC[5caC]GGTCACGCTC; experiment: Reaction kinetics of caC reduction on 20mer, boranes with cationic moieties; details: 20 μM 20mer, 10 mM borane, NaOAc pH 4.3, 25° C.; FIG. 7
Procedure: as §1

SMILES: [BH3-][n+]1ccc(C)cc1
- beta value (percentage of caC sites detected by Illumina sequencing; conversion of caC to T) [1]: ~1
- beta values with two-step protocol compared with one-step protocol [2]: consistent with the value obtained with the one-step protocol

SMILES: [BH3-][n+]1cccc(N)c1 [3 AP, 3-aminopyridine borane]
- beta value (percentage of caC sites detected by Illumina sequencing; conversion of caC to T) [1]: ~1

SMILES: C[N+](C)(C)CC(=O)NCc1ccncc1 [4AMP-Bet, 4-(Betainamidomethyl)pyridine borane (OBt/PF6 salt)]
- reaction kinetics of consumption of caC on the 7mer [3]: efficient reaction kinetics of consumption of caC
- reaction kinetics of consumption of caC on the 20mer [4]: efficient reaction kinetics of consumption of caC

SMILES: [BH3-][n+]1ccc(CO)cc1 [4HMP, 4-Hydroxymethylpyridine borane]
- beta value (percentage of caC sites detected by Illumina sequencing; conversion of caC to T) [1]: ~1

SMILES: B[n+]1csc(C)c1 [VM117, 5-methylthiazole borane]
- beta value (percentage of caC sites detected by Illumina sequencing; conversion of caC to T) [1]: ~1
- beta values with two-step protocol compared with one-step protocol [2]: consistent with the value obtained with the one-step protocol

SMILES: B[n+]1c(C)sc(COC)c1C [VM293, 5-(methoxymethyl)-2,4-dimethyl-1,3-thiazole borane]
- beta value (percentage of caC sites detected by Illumina sequencing; conversion of caC to T) [1]: ~1
